PMC6419571, “Discovery and lead optimisation of a potent, selective and orally bioavailable RARβ agonist for the potential treatment of nerve injury” (Bioorganic & Medicinal Chemistry Letters, 2019)
pEC50, pIC50: −log10 of the molar value.

Key:
RARα = target: T1, RARα (Mus musculus, UniProt P11416); test: RAR alpha transactivation assay (gal4-RAR LBD fusion, luciferase reporter, COS-7 cells); format: cell-based; details: mouse RAR ligand binding domain; usually three experiments; read-out: α EC50
T1 construct: expressed in transfected cells; host or cells: COS-7
T1 sequence (P11416 183-417 limits assumed): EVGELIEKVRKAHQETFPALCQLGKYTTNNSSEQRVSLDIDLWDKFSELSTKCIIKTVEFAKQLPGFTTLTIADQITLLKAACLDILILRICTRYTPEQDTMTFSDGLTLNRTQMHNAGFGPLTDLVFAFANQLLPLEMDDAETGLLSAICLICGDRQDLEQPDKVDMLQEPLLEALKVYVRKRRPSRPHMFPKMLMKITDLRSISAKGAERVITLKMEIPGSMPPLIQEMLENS
Protocol: (§1) Compounds were tested in transactivation assays at the RAR α, β and γ receptors.
(§2) Transactivation assays for RAR alpha, beta and gamma receptors:
(§3) Transcriptional transactivation assays have been performed with gal4 fusion receptor constructs, created using each of the mouse RAR ligand-binding domains, co-transfected with the pFR-luc (Stratagene) reporter construct in COS-7 cells.
(§4) Briefly, on day one, 96 well plates were seeded with 8000 cells per well then left to recover overnight. On day two, the cells were co-transfected with 100ng of reporter plasmid and 10ng of the appropriate receptor plasmid per well using lipofectamine (Invitrogen). On day three, the lipofectamine containing media was replaced by a DMEM without phenol red, followed by the addition of novel compounds dissolved in 1µl of DMSO to each well’s 100µl total volume. Finally, on day four, the cells were lysed and their luciferase substrate was provided by the BrightGlo reagent (Promega), the plates were then read on the MicroBeta TriLux (Perkin Elmer).
(§5) Data for test compounds are quoted as EC50 values. Where replicate data has been generated the data are quoted as the mean EC50 from the separate experiments.

RARβ = target: T2, RARβ (Mus musculus, UniProt P22605); test: RAR beta transactivation assay (gal4-RAR LBD fusion, luciferase reporter, COS-7 cells); format: cell-based
T2 construct: expressed in transfected cells; host or cells: COS-7
T2 sequence (P22605 210-444 limits assumed): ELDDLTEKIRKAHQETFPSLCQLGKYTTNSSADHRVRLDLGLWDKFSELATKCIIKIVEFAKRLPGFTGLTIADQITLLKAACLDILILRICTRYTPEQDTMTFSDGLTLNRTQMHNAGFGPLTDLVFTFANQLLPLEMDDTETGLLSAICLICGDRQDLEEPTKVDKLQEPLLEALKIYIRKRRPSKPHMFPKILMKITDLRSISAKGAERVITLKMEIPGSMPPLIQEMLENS
Protocol: as §1, §2, §3, §4, §5

RARγ = target: T3, RARγ (Mus musculus, UniProt P18911); test: RAR gamma transactivation assay (gal4-RAR LBD fusion, luciferase reporter, COS-7 cells); format: cell-based; details: mouse RAR ligand binding domain; Tables 1 and 4; read-out: γ EC50
T3 construct: expressed in transfected cells; host or cells: COS-7
T3 sequence (P18911 185-419 limits assumed): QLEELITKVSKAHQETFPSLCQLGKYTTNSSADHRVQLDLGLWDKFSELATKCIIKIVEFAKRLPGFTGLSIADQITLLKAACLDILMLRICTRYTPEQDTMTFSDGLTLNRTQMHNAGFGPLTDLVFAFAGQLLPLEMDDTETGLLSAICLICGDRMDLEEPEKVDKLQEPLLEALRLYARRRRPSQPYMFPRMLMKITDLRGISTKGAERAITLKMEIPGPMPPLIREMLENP
Protocol: as §1, §2, §3, §4, §5

[1] = LogD by shake flask method; format: physicochemical; details: pH 7.4
Solubility = format: physicochemical; details: pH 7.4, as the amorphous sodium salt
[2] = Bi-directional permeability in MDR1-MDCK cell line; format: in vitro ADME; details: dog; MDR1-MDCK cell line
Description: (§6) The potential drug candidate 10 has excellent physico-chemical properties.

MDR1-MDCK cell line = test: Bi-directional permeability in MDR1-MDCK cell line; format: in vitro ADME
Description: as §6

P-gp (MDR1) = test: Bi-directional permeability in MDR1-MDCK cell line; format: in vitro ADME; details: dog; MDR1-MDCK cell line, bi-directional; read-out: MDCK asymmetry ratio (efflux ratio)
Description: as §6

Cyp450 2C9 = Cyp450 2C9 (Homo sapiens, UniProt P11712); test: Cyp450 inhibition, 2C9; format: in vitro ADME; details: isoform 2C9
Cyp450 2C19 = Cyp450 2C19 (Homo sapiens, UniProt P33261); test: Cyp450 inhibition, 2C19; format: in vitro ADME; details: isoform 2C19
Cyp450 2D6 = Cyp450 2D6 (Homo sapiens, UniProt P10635); test: Cyp450 inhibition, 2D6; format: in vitro ADME; details: isoform 2D6
Cyp450 3A4 = Cyp450 3A4 (Homo sapiens, UniProt P08684); test: Cyp450 inhibition, 3A4; format: in vitro ADME; details: isoform 3A4
[3] = Human plasma protein binding; format: in vitro ADME
[4] = Mouse plasma protein binding; format: in vitro ADME
HERG channels = HERG channels (Homo sapiens, UniProt Q12809); test: Binding assay for HERG channels; details: at 10 μM
Cerebellar neurons = test: Neurite outgrowth in cerebellar cultures on CHO-MAG monolayer; format: cell-based; details: 24 hr treatment, 1 × 10^−8–1 × 10^−6 M
Protocol: Compound 10 was evaluated for neurite outgrowth/branching in cerebellar cultures. Cerebellar cultures grown on a monolayer of CHO-MAG were treated with RARβ agonists and neurite outgrowth was assessed by immunostaining and neurite length quantification.[10]
Fig. 1 Effects of RARβ agonists 10 on neurite outgrowth. Cerebellar neurons grown on a monolayer of CHO-MAG cells were treated for 24 hr with either vehicle (V) or increasing doses of RARβ agonists (1 × 10^−8–1 × 10^−6 M). Both RARβ agonists increase neurite outgrowth in a dose dependant manner. Results are means from 3 independent experiments. Statistical analysis was done using Student’s t-test between vehicle and each drug’s highest dose. Error bars are SEM and **p ≤ 0.001, *p ≤ 0.01.

avulsed rats = test: Rodent model of avulsion: sensory and locomotor tasks; format: in vivo, rat; details: 3 mg/kg, po, three times a week
Protocol: Rats were trained for two weeks prior to surgery in behavioural tasks and scores were recorded the day before surgery, the day after surgery and then weekly, for four weeks. Surgery was performed as previously described.[11], [12] In a sticky tape task, the time taken to sense and remove the tape from the paw of the lesioned forelimbs was measured. […] In locomotor tasks, the number of foot slips in a horizontal ladder made by the injured forelimb of the compound 10 treated rats was also measured. […] Further details and data on an in vivo model of crush injury will be presented in due course.
Fig. 2 Effects of oral administration of compound 10 in sensory and locomotor functions in avulsed rats. Dose 3 mg/kg, po, three times a week, every other day. Data represent mean ± SEM of n = 8, **p ≤ 0.005, ***p ≤ 0.001. Two-way repeated-measures ANOVA, Tukey’s post-hoc test.

Chain of Cyp450 2D6 (P10635 whole entry, canonical isoform): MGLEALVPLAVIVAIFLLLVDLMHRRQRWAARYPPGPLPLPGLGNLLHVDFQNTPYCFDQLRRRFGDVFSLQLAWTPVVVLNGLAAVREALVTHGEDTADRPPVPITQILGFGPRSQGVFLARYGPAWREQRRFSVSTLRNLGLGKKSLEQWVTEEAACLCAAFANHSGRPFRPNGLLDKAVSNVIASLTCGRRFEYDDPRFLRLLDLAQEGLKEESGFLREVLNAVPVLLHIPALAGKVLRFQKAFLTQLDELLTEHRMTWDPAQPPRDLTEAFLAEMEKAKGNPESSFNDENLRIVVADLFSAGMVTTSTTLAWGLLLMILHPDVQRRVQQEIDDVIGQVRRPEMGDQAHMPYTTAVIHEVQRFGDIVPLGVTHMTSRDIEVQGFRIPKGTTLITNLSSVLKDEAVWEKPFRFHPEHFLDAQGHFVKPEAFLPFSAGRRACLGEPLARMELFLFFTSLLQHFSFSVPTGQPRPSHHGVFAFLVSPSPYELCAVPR
Chain of Cyp450 3A4 (P08684 whole entry, canonical isoform): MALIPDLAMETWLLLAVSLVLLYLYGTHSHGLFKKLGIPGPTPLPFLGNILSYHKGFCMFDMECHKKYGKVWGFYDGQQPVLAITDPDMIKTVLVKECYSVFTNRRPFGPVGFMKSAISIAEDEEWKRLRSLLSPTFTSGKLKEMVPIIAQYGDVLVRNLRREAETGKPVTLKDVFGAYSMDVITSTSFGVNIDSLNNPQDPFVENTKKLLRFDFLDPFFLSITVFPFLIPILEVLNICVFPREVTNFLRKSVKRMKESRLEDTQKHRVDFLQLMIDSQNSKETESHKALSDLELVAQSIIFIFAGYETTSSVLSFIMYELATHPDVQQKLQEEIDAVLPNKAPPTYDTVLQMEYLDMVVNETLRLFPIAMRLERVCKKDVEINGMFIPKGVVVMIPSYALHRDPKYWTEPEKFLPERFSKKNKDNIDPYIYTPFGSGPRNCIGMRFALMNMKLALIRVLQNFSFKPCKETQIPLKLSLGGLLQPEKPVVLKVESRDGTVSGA
Chain of HERG channels (Q12809 whole entry): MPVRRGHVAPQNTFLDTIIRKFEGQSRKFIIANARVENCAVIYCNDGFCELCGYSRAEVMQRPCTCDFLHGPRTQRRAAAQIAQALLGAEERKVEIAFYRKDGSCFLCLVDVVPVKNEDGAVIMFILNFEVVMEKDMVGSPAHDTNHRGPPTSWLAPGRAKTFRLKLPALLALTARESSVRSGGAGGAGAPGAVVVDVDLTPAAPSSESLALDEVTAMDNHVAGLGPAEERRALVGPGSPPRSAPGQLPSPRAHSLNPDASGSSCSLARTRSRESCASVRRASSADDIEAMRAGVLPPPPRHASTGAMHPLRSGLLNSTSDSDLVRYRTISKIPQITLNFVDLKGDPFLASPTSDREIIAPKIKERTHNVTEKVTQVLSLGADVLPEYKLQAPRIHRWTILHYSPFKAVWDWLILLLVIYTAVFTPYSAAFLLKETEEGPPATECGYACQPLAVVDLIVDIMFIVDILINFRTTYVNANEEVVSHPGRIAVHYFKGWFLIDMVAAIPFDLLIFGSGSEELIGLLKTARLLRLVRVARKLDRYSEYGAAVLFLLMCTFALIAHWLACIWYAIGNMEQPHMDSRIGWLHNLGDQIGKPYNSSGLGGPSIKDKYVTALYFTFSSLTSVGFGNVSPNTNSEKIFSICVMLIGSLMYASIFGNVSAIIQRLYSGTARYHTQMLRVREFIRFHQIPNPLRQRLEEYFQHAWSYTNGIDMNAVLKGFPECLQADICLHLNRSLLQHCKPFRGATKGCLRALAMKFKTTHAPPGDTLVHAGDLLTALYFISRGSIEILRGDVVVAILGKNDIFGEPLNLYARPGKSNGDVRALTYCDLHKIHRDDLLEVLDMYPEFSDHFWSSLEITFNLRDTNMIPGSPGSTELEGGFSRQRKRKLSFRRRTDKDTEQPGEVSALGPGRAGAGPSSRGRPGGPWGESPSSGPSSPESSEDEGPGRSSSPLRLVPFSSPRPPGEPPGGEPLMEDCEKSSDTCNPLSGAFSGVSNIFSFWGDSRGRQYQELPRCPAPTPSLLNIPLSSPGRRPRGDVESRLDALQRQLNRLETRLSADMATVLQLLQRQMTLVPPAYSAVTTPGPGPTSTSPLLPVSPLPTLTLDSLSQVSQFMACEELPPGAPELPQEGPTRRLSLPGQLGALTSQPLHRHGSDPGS
Chain of Cyp450 2C19 (P33261 whole entry, canonical isoform): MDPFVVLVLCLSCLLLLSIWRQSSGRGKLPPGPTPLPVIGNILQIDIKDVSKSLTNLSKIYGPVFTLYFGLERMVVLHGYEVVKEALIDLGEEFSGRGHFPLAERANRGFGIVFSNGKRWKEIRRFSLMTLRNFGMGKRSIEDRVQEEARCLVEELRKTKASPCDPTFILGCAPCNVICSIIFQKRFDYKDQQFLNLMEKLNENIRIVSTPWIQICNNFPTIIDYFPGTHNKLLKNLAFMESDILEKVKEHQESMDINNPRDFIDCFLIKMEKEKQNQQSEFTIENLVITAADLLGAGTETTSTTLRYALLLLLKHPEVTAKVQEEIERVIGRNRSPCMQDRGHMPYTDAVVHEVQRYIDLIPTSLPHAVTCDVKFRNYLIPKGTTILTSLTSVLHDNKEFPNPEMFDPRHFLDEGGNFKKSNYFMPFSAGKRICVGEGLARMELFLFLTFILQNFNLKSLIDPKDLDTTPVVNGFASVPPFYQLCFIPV
Chain of Cyp450 2C9 (P11712 whole entry, canonical isoform): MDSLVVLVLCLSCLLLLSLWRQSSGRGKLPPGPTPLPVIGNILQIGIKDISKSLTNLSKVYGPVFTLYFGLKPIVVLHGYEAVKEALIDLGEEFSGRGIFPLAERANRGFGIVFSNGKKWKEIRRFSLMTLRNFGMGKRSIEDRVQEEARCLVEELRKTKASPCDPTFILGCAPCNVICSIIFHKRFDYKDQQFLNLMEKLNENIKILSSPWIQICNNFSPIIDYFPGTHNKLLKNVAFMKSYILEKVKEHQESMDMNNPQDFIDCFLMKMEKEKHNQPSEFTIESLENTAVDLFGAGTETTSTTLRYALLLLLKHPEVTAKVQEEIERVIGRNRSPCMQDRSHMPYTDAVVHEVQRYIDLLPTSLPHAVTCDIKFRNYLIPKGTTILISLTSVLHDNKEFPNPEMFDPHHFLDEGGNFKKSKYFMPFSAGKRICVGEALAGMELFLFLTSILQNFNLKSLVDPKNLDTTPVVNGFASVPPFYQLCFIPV

With `Cc1ccc(C)c2oc(-c3nc(-c4ccc(C(=O)O)cc4)no3)cc12` [Compound 10, 4-(5-(4,7-dimethylbenzofuran-2-yl)-1,2,4-oxadiazol-3-yl)benzoic acid] the pEC50 (RARα) was 7.59, the “Fold selectivity for β over α” value (RARβ; EC50 ratio of α to β, mouse, Tables 1 and 4) was 13 and the “Fold selectivity for β over γ” value (RARβ; EC50 ratio of γ to β, mouse) was 5.6. For the same compound, the “agonist behaviour (full/partial) relative to ATRA” value (RARβ; maximum upper asymptote within 20% of that found for ATRA) was “full agonist”, the pEC50 (RARβ; mouse RAR ligand binding domain, usually three experiments, read-out: β EC50) was 8.72 and the pEC50 (RARγ) was 7.96. For the same compound, the logD [1] was 2.8, the solubility (Solubility) was > 100 µM and the Papp [2] was 28 ×10⁻⁶ cm/s. The “permeability (in words)” value (MDR1-MDCK cell line) was “good permeability”, the “MDCK asymmetry ratio (efflux ratio)” value (MDR1-MDCK cell line; MDR1-MDCK cell line, bi-directional) was “close to unity” and the efflux ratio (P-gp (MDR1)) was 0.8. For the same compound, the pIC50 (Cyp450 2C9) was < 4.60, the pIC50 (Cyp450 2C19) was < 4.60 and the pIC50 (Cyp450 2D6) was < 4.60. The pIC50 (Cyp450 3A4) was < 4.60, the fraction unbound [3] was 0.02 and the fraction unbound [4] was 0.05. The “HERG channel binding inhibition” value (HERG channels) was “no inhibition”, the “neurite length / outgrowth” value (Cerebellar neurons) was “increased neurite length in a dose dependant manner” and the “sticky tape task latency (sense and remove tape), injured forelimb vs vehicle” value (avulsed rats; from week three) was “significantly lower latencies”. For the same compound, the “number of foot slips in horizontal ladder, injured forelimb vs vehicle” value (avulsed rats; from week two) was “markedly lower”.
